Measurements from patent US10065990B2, “Cyclic peptide compound, and preparation method, pharmaceutical composition and use thereof” (HANGZHOU GUANYU BIO-MEDICAL CO., LTD, priority 2013, dated 2018).

Columns and labels:
[1] = target: T1, HDAC7 (Homo sapiens, UniProt Q8WUI4); test: HDAC biochemical activity measurement (fluorescent substrate deacetylation);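 also: fluorogenic deacetylation assay using acetyl-lysine substrate at 20 µM, enzyme and compound incubated 30 min at 37 °C, then developer added, fluorescence read at 360/460 nm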; settings: HDAC7; 37° C. 30 minutes
T1 sequence (Q8WUI4 1-952): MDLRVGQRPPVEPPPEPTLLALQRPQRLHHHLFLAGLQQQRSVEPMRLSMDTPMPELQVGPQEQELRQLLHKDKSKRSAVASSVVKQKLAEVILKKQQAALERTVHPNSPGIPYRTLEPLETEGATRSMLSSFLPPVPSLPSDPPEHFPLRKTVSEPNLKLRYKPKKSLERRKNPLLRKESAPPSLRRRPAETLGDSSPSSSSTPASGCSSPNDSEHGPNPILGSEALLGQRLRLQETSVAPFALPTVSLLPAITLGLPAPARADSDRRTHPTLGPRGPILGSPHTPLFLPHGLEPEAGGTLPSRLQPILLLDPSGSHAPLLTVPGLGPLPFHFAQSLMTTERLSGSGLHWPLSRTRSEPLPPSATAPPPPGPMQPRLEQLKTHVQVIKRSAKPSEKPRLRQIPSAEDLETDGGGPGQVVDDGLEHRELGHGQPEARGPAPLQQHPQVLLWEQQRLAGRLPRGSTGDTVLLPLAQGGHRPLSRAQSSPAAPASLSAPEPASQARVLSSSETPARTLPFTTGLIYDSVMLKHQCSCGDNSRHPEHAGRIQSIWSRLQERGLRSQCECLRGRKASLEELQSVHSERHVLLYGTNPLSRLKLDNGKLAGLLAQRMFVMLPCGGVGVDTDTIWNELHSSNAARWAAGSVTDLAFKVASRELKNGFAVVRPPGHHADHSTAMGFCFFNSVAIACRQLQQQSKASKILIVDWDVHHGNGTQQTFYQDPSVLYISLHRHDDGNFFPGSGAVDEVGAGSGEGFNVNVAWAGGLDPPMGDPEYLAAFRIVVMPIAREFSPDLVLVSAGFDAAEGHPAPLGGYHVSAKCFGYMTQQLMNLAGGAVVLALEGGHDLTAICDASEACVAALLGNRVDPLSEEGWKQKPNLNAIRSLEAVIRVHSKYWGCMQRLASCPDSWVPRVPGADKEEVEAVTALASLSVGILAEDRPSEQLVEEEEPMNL

[2] = tested on: MOLT-4 (human acute lymphoblastic leukemia cells); test: MTT cancer cell growth inhibition; assay type: cell-based; settings: Homo sapiens, MOLT-4, 72 h, MTT, 72 hours incubation; read-out: GI50 Mol
Text: (§1) MTT assay principle is yellow MTT can penetrate membrane into the cell, succinic dehydrogenase of the mitochondria in living cells can make exogenous MTT reduction of insoluble in water of blue-violet acicular formazan for crystallization and deposition in the cell, crystallization can be dissolved dimethyl sulfoxide (DMSO) solution, detected its absorbance at 490 nm/570 nm wavelength by enzyme-linked immunosorbent assay, which can reflect the number of cells.
(§2) Using DMEM+10% FBS culture medium or using 1640+10% FBS culture, respectively.
(§3) a) Cells were seeded in 96-well plates with the inoculation of 1500/well, 190 μl/hole, 37° C., 5% of CO2 incubator overnight;
(§4) b) The next day each well was added 10 μl of different drugs. The final concentration of drug was 10^−5˜10^−10M, three parallel holes; 37° C., 5% CO2 culture incubator for 72 hours incubation;
(§5) c) Per well was added 20 μl 5 mg/ml of MTT, 37° C., 5% CO2 culture incubator for 4 hours incubation;
(§6) d) The supernatant was discarded. Each well was added 100 μl of DMSO and oscillation;
(§7) e) 570 nm readings. Calculate cell viability. GI50 calculation based on the results.

[3] = tested on: BGC-823 (human gastric cancer cells); test: MTT cancer cell growth inhibition; assay type: cell-based; settings: Homo sapiens, BGC-823, 72 h, MTT, 72 hours incubation; read-out: GI50 BG
Text: as §1, §2, §3, §4, §5, §6, §7

[4] = tested on: U937 (human leukemia cells); test: MTT cancer cell growth inhibition; assay type: cell-based; settings: Homo sapiens, U-937, 72 h, MTT, 72 hours incubation; read-out: GI50 U93
Text: as §1, §2, §3, §4, §5, §6, §7

[5] = tested on: HCC827 (human non-small cell lung cancer cells); test: MTT cancer cell growth inhibition; assay type: cell-based; settings: Homo sapiens, HCC827, 72 h, MTT, 72 hours incubation, HCC827 cells; read-out: GI50 HCC827
Text: as §1, §2, §3, §4, §5, §6, §7

[6] = tested on: lncap (prostate cancer cells); test: MTT cancer cell growth inhibition; assay type: cell-based; settings: Homo sapiens, LNCaP, 72 h, MTT, 72 hours incubation; read-out: GI50 lnca
Text: as §1, §2, §3, §4, §5, §6, §7

[7] = tested on: KBM5-T315I (human chronic myelogenous leukemia); test: MTT cancer cell growth inhibition; assay type: cell-based; settings: Homo sapiens, 72 h, MTT, 72 hours incubation, KBM5-T315I cells; read-out: GI50 KBM5-T315I
Text: as §1, §2, §3, §4, §5, §6, §7

[8] = tested on: MCF-7 (human breast cancer cells); test: MTT cancer cell growth inhibition; assay type: cell-based; settings: Homo sapiens, MCF7, 72 h, 72 hours incubation, read-out: GI50 MCF
Text: as §1, §2, §3, §4, §5, §6, §7

[9] = tested on: A549 (human lung cancer cells); test: MTT cancer cell growth inhibition; assay type: cell-based; settings: Homo sapiens, A549, 72 h, MTT, 72 hours incubation; read-out: GI50 A54
Text: as §1, §2, §3, §4, §5, §6, §7

[10] = tested on: HT1080 (human fibrosarcoma cells); test: MTT cancer cell growth inhibition; assay type: cell-based; settings: Homo sapiens, HT-1080, 72 h, MTT, 72 hours incubation; read-out: GI50 HT1
Text: as §1, §2, §3, §4, §5, §6, §7

[11] = tested on: SGC-7901 (human gastric cancer cells); test: MTT cancer cell growth inhibition; assay type: cell-based; settings: Homo sapiens, SGC-7901, 72 h, MTT, 72 hours incubation, SGC-7901 cells; read-out: GI50 SGC-7901
Text: as §1, §2, §3, §4, §5, §6, §7

[12] = tested on: Hela (human cervical cancer cells); test: MTT cancer cell growth inhibition; assay type: cell-based; settings: Homo sapiens, HeLa, 72 h, MTT, 72 hours incubation; read-out: GI50 Hela
Text: as §1, §2, §3, §4, §5, §6, §7

[13] = tested on: PANC-1 (Pac-1, human pancreatic cancer cells); test: MTT cancer cell growth inhibition; assay type: cell-based; settings: Homo sapiens, PANC-1, 72 h, MTT, 72 hours incubation; read-out: GI50 PAN
Text: as §1, §2, §3, §4, §5, §6, §7

[14] = tested on: KBM-5 (human chronic myelogenous leukemia); test: MTT cancer cell growth inhibition; assay type: cell-based; settings: Homo sapiens, KBM5, 72 h, MTT, 72 hours incubation, KBM-5 cells; read-out: GI50 KBM-5
Text: as §1, §2, §3, §4, §5, §6, §7

[15] = tested on: MDA-MB-231 (breast cancer cells); test: MTT cancer cell growth inhibition; assay type: cell-based; settings: Homo sapiens, MDA-MB-231, 72 h, read-out: GI50 MDA-MB-231, MTT, 72 hours incubation, MDA-MB-231 cells
Text: as §1, §2, §3, §4, §5, §6, §7

[16] = tested on: H1975 (non-small cell lung adenocarcinoma); test: MTT cancer cell growth inhibition; assay type: cell-based; settings: Homo sapiens, NCI-H1975, 72 h, MTT, 72 hours incubation, H1975 cells; read-out: GI50 H1975
Text: as §1, §2, §3, §4, §5, §6, §7

[17] = tested on: Bel-7402 (human hepatoma cells); test: MTT cancer cell growth inhibition; assay type: cell-based; settings: Homo sapiens, Bel-7402, 72 h, MTT, 72 hours incubation, Bel-7402 cells; read-out: GI50 Bel-7402
Text: as §1, §2, §3, §4, §5, §6, §7

[18] = tested on: K562 (human leukemia cells); test: MTT cancer cell growth inhibition; assay type: cell-based; settings: Homo sapiens, K562, 72 h, MTT, 72 hours incubation, K562 cells; read-out: GI50 K562
Text: as §1, §2, §3, §4, §5, §6, §7

[19] = tested on: N-87 (human gastric cancer cells); test: MTT cancer cell growth inhibition; assay type: cell-based; settings: Homo sapiens, 72 h, MTT, 72 hours incubation, N-87 cells; read-out: GI50 N-87
Text: as §1, §2, §3, §4, §5, §6, §7

[20] = tested on: DU145 (human prostate cancer cells); test: MTT cancer cell growth inhibition; assay type: cell-based; settings: Homo sapiens, DU-145, 72 h, MTT, 72 hours incubation; read-out: GI50 Du1
Text: as §1, §2, §3, §4, §5, §6, §7

[21] = tested on: Huh-7 (human hepatoma cells); test: MTT cancer cell growth inhibition; assay type: cell-based; settings: Homo sapiens, Huh-7, 72 h, MTT, 72 hours incubation, Huh-7 cells; read-out: GI50 Huh-7
Text: as §1, §2, §3, §4, §5, §6, §7

Row | SMILES | IC50 HDAC7 [1] | GI50 [2] [nM] | GI50 [3] [nM] | GI50 [4] [nM] | GI50 [5] [nM] | GI50 [6] [nM] | GI50 [7] [nM] | GI50 [8] [nM] | GI50 [9] [nM] | GI50 [10] [nM] | GI50 [11] [nM] | GI50 [12] [nM] | GI50 [13] [nM] | GI50 [14] [nM] | GI50 [15] [nM] | GI50 [16] [nM] | GI50 [17] [nM] | GI50 [18] [nM] | GI50 [19] [nM] | GI50 [20] [nM] | other results
1 | C/C=C1\NC(=O)c2ncc(F)c(n2)CNC(=O)C[C@@H](/C=C/CCSC(C)=O)OC(=O)[C@H](C(C)C)NC1=O [Compound 97] | no activity | 20 | 30 | 30 | 39 | 20 | 26 | 30 | 50 | 70 | 24 | 90 | 70 | 93 | 31 | 42 | 59 | 29 | 31 | 10 | GI50 [21]: 13 nM
2 | C/C=C1\NC(=O)c2ccc(F)c(n2)CNC(=O)C[C@@H](/C=C/CCS)OC(=O)[C@H](C(C)C)NC1=O [Compound 108] | no activity | 20 | 20 | 30 | 93 | 20 | 24 | 30 | 40 | 80 | 36 | 70 | 80 | 11 | 49 | 33 | 76 | 59 | 34 | 20 | GI50 [21]: 43 nM
3 | C/C=C1\NC(=O)c2nc(ccc2F)CNC(=O)C[C@@H](/C=C/CCS)OC(=O)[C@H](Cc2cccc3ccccc23)NC1=O [Compound 124] | no activity | 50 | 30 | 100 | 35 | 70 | 15 | 30 | 50 | 30 | 42 | 30 | 690 | 57 | 51 | 28 | 72 | 76 | 45 | 20 | GI50 [21]: 16 nM
